# Test results published in patent US9738634B2, “Heterocyclic amide compound and herbicide” (SYNGENTA PARTICIPATIONS AG, priority 2013, dated 2017).
# Columns and labels:
# Format in all cases: in vivo
# [1] = test system: barnyard grass; assay: Test Example 2: weedkilling efficacy, growth period weed treatment in the submerged state; A: barnyard grass; settings: treatment dosage 320 g/ha
# In short: (§1)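 Seedlings at 1-2 leaves in 4 cm-deep submerged alluvial soil received emulsion formulations on the water surface, dosed per hectare; effects were judged 3 weeks on.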
# [2] = test system: fig-leafed goosefoot; assay: Test Example 3: weedkilling efficacy through soil treatment; M: fig-leafed goosefoot; settings: soil treatment, treatment dosage 320 g/ha
# In short: (§2)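 Crop and weed responses were judged three weeks after a uniform surface spray of the water-diluted emulsion at the given g/ha rate. Seeds sat beneath about 1.5 cm of sterilized diluvial soil, and boxes stood in a greenhouse at 25 to 30° C.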
# [3] = test system: Indian mallow; assay: Test Example 3: weedkilling efficacy through soil treatment; K: Indian mallow; settings: soil treatment, treatment dosage 320 g/ha
# In short: as §2
# [4] = test system: barnyard grass; assay: Test Example 1: weedkilling efficacy, preemergent weed treatment in the submerged state; A: barnyard grass; settings: treatment dosage 320 g/ha
# In short: (§3)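 Pre-emergence paddy test: weed seeds sown in submerged alluvial soil (4 cm water), 2.5-leaf rice transplanted, water-diluted emulsion applied to water surface at sowing at stated g/ha. Scored at 3 weeks, greenhouse 25–30 °C.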
# [5] = test system: corn; assay: Test Example 3: soil treatment, effect on crop; c: corn; settings: soil treatment, treatment dosage 320 g/ha
# In short: as §2
# [6] = test system: directly sown rice; assay: Test Example 3: soil treatment, effect on crop; b: directly sown rice; settings: soil treatment, treatment dosage 320 g/ha
# In short: as §2
# [7] = test system: wheat; assay: Test Example 3: soil treatment, effect on crop; e: wheat; settings: soil treatment, treatment dosage 320 g/ha
# In short: as §2
# [8] = test system: oval-leafed pondweed; assay: Test Example 2: weedkilling efficacy, growth period weed treatment in the submerged state; C: oval-leafed pondweed; settings: treatment dosage 320 g/ha
# In short: as §1
# [9] = test system: transplanted rice; assay: Test Example 1: preemergent weed treatment in the submerged state, effect on crop; a: transplanted rice; settings: treatment dosage 320 g/ha
# In short: as §3
# [10] = test system: oval-leafed pondweed; assay: Test Example 1: weedkilling efficacy, preemergent weed treatment in the submerged state; C: oval-leafed pondweed; settings: treatment dosage 320 g/ha
# In short: as §3
# [11] = test system: birds-eye speedwell; assay: Test Example 3: weedkilling efficacy through soil treatment; p: birds-eye speedwell; settings: soil treatment, treatment dosage 320 g/ha
# In short: as §2
# [12] = test system: rapeseed; assay: Test Example 3: soil treatment, effect on crop; g: rapeseed; settings: soil treatment, treatment dosage 320 g/ha
# In short: as §2
# [13] = test system: common wind-grass; assay: Test Example 3: weedkilling efficacy through soil treatment; J: common wind-grass; settings: soil treatment, treatment dosage 320 g/ha
# In short: as §2
# [14] = test system: redroot pigweed; assay: Test Example 3: weedkilling efficacy through soil treatment; L: redroot pigweed; settings: soil treatment, treatment dosage 320 g/ha
# In short: as §2
# [15] = test system: barnyard grass; assay: Test Example 3: weedkilling efficacy through soil treatment; F: barnyard grass; settings: soil treatment, treatment dosage 320 g/ha
# In short: as §2
# [16] = test system: bulrush; assay: Test Example 2: weedkilling efficacy, growth period weed treatment in the submerged state; B: bulrush; settings: treatment dosage 320 g/ha
# In short: as §1
# [17] = test system: wild oat; assay: Test Example 3: weedkilling efficacy through soil treatment; G: wild oat; settings: soil treatment, treatment dosage 320 g/ha
# In short: as §2
# [18] = test system: Italian ryegrass; assay: Test Example 3: weedkilling efficacy through soil treatment; I: Italian ryegrass; settings: soil treatment, treatment dosage 320 g/ha
# In short: as §2
# [19] = test system: crabgrass; assay: Test Example 3: weedkilling efficacy through soil treatment; D: crabgrass; settings: soil treatment, treatment dosage 320 g/ha
# In short: as §2
# [20] = test system: chickweed; assay: Test Example 3: weedkilling efficacy through soil treatment; N: chickweed; settings: soil treatment, treatment dosage 320 g/ha
# In short: as §2
# [21] = test system: bulrush; assay: Test Example 1: weedkilling efficacy, preemergent weed treatment in the submerged state; B: bulrush; settings: treatment dosage 320 g/ha
# In short: as §3
# [22] = test system: black-grass; assay: Test Example 3: weedkilling efficacy through soil treatment; H: black-grass; settings: soil treatment, treatment dosage 320 g/ha
# In short: as §2
# [23] = test system: beet; assay: Test Example 3: soil treatment, effect on crop; f: beet; settings: soil treatment, treatment dosage 320 g/ha
# In short: as §2
# [24] = test system: catchweed; assay: Test Example 3: weedkilling efficacy through soil treatment; O: catchweed; settings: soil treatment, treatment dosage 320 g/ha
# In short: as §2
# [25] = test system: green foxtail; assay: Test Example 3: weedkilling efficacy through soil treatment; E: green foxtail; settings: soil treatment, treatment dosage 320 g/ha
# In short: as §2
# [26] = test system: soybean; assay: Test Example 3: soil treatment, effect on crop; d: soybean; settings: soil treatment, treatment dosage 320 g/ha
# In short: as §2
Compound,A (barnyard grass) weedkilling efficacy grade [1],"M: fig-leafed goosefoot, weedkilling efficacy grade [2]","K: Indian mallow, weedkilling efficacy grade [3]","A: barnyard grass, weed kill grade [4]","c: corn, effect on crop grade [5]","b: directly sown rice, effect on crop grade [6]","e: wheat, effect on crop grade [7]",C (oval-leafed pondweed) weedkilling efficacy grade [8],"a: transplanted rice, effect on crop grade [9]","C: oval-leafed pondweed, weed kill grade [10]","P: birds-eye speedwell, weedkilling efficacy grade [11]","g: rapeseed, effect on crop grade [12]","J: common wind-grass, weedkilling efficacy grade [13]","L: redroot pigweed, weedkilling efficacy grade [14]","F: barnyard grass, weedkilling efficacy grade [15]",B (bulrush) weedkilling efficacy grade [16],"G: wild oat, weedkilling efficacy grade [17]","I: Italian ryegrass, weedkilling efficacy grade [18]","D: crabgrass, weedkilling efficacy grade [19]","N: chickweed, weedkilling efficacy grade [20]",further results
CC(C)(C(=O)Nc1cc(Cl)cc(-c2ccccc2)n1)N1COCN(c2ccccc2)C1=O [A-2-31],"5 (weed kill ratio 90% or more, (practically complete withering))","2 (weed kill ratio 20% or more, less than 40%)",0 (weed kill ratio 5% or less (practically no effect)),"5 (weed kill ratio 90% or more, (practically complete withering))",0 (weed kill ratio 5% or less (practically no effect)),0 (weed kill ratio 5% or less (practically no effect)),0 (weed kill ratio 5% or less (practically no effect)),"4 (weed kill ratio 70% or more, less than 90%)",0 (weed kill ratio 5% or less (practically no effect)),"5 (weed kill ratio 90% or more, (practically complete withering))","3 (weed kill ratio 40% or more, less than 70%)",0 (weed kill ratio 5% or less (practically no effect)),"4 (weed kill ratio 70% or more, less than 90%)",0 (weed kill ratio 5% or less (practically no effect)),"2 (weed kill ratio 20% or more, less than 40%)","5 (weed kill ratio 90% or more, (practically complete withering))","2 (weed kill ratio 20% or more, less than 40%)","1 (weed kill ratio 5% or more, less than 20%)","2 (weed kill ratio 20% or more, less than 40%)","3 (weed kill ratio 40% or more, less than 70%)","B: bulrush, weed kill grade [21]: 5 (weed kill ratio 90% or more, (practically complete withering)); H: black-grass, weedkilling efficacy grade [22]: 3 (weed kill ratio 40% or more, less than 70%); f: beet, effect on crop grade [23]: 0 (weed kill ratio 5% or less (practically no effect)); O: catchweed, weedkilling efficacy grade [24]: 3 (weed kill ratio 40% or more, less than 70%); E: green foxtail, weedkilling efficacy grade [25]: 2 (weed kill ratio 20% or more, less than 40%); d: soybean, effect on crop grade [26]: 0 (weed kill ratio 5% or less (practically no effect))"
COc1cc(Cl)cc(NC(=O)C(C)(C)N2COCN(c3ccccc3)C2=O)n1 [A-2-32],"5 (weed kill ratio 90% or more, (practically complete withering))","5 (weed kill ratio 90% or more, (practically complete withering))",0 (weed kill ratio 5% or less (practically no effect)),"5 (weed kill ratio 90% or more, (practically complete withering))","1 (weed kill ratio 5% or more, less than 20%)","2 (weed kill ratio 20% or more, less than 40%)",0 (weed kill ratio 5% or less (practically no effect)),"5 (weed kill ratio 90% or more, (practically complete withering))","4 (weed kill ratio 70% or more, less than 90%)","5 (weed kill ratio 90% or more, (practically complete withering))","5 (weed kill ratio 90% or more, (practically complete withering))","4 (weed kill ratio 70% or more, less than 90%)","5 (weed kill ratio 90% or more, (practically complete withering))","3 (weed kill ratio 40% or more, less than 70%)","5 (weed kill ratio 90% or more, (practically complete withering))","5 (weed kill ratio 90% or more, (practically complete withering))","5 (weed kill ratio 90% or more, (practically complete withering))","5 (weed kill ratio 90% or more, (practically complete withering))","5 (weed kill ratio 90% or more, (practically complete withering))","4 (weed kill ratio 70% or more, less than 90%)","B: bulrush, weed kill grade [21]: 5 (weed kill ratio 90% or more, (practically complete withering)); H: black-grass, weedkilling efficacy grade [22]: 5 (weed kill ratio 90% or more, (practically complete withering)); f: beet, effect on crop grade [23]: 4 (weed kill ratio 70% or more, less than 90%); O: catchweed, weedkilling efficacy grade [24]: 5 (weed kill ratio 90% or more, (practically complete withering)); E: green foxtail, weedkilling efficacy grade [25]: 5 (weed kill ratio 90% or more, (practically complete withering)); d: soybean, effect on crop grade [26]: 0 (weed kill ratio 5% or less (practically no effect))"
CC(C)(C(=O)Nc1cc(Oc2ccccc2)cc(Cl)n1)N1COCN(c2ccccc2)C1=O [A-2-36],"5 (weed kill ratio 90% or more, (practically complete withering))","3 (weed kill ratio 40% or more, less than 70%)",0 (weed kill ratio 5% or less (practically no effect)),"5 (weed kill ratio 90% or more, (practically complete withering))",0 (weed kill ratio 5% or less (practically no effect)),0 (weed kill ratio 5% or less (practically no effect)),0 (weed kill ratio 5% or less (practically no effect)),"5 (weed kill ratio 90% or more, (practically complete withering))","2 (weed kill ratio 20% or more, less than 40%)","5 (weed kill ratio 90% or more, (practically complete withering))","4 (weed kill ratio 70% or more, less than 90%)","1 (weed kill ratio 5% or more, less than 20%)","5 (weed kill ratio 90% or more, (practically complete withering))","3 (weed kill ratio 40% or more, less than 70%)","4 (weed kill ratio 70% or more, less than 90%)","3 (weed kill ratio 40% or more, less than 70%)",0 (weed kill ratio 5% or less (practically no effect)),"5 (weed kill ratio 90% or more, (practically complete withering))","5 (weed kill ratio 90% or more, (practically complete withering))","3 (weed kill ratio 40% or more, less than 70%)","B: bulrush, weed kill grade [21]: 5 (weed kill ratio 90% or more, (practically complete withering)); H: black-grass, weedkilling efficacy grade [22]: 5 (weed kill ratio 90% or more, (practically complete withering)); f: beet, effect on crop grade [23]: 2 (weed kill ratio 20% or more, less than 40%); O: catchweed, weedkilling efficacy grade [24]: 0 (weed kill ratio 5% or less (practically no effect)); E: green foxtail, weedkilling efficacy grade [25]: 5 (weed kill ratio 90% or more, (practically complete withering)); d: soybean, effect on crop grade [26]: 0 (weed kill ratio 5% or less (practically no effect))"
